Assay results: patent US20220390432A1, “METHODS OF CHARACTERIZING AND UTILIZING AGENT-CONDENSATE INTERACTIONS” (Whitehead Institute for Biomedical Research, priority 2019, published 2022)
“Also recorded” adds a separate entry of the source.

Legend:
[1] = molecular target: T1, MED1 (Homo sapiens, UniProt Q15648); assay: In vitro droplet assay, small molecule partitioning into MED1 condensates; assay type: binding; conditions: for partitioning / incorporation into MED1 droplets: confocal fluorescence, Example 2: 125 mM NaCl, 10% PEG, 10 μM protein, fluorescent or fluorescently labeled drug
T1 construct: MED1—amino acids 600-1581; 6xHis (N); made in house; host or cells: LOBSTR cells (E. coli)
Description: (§1) Recombinant BFP, GFP, or mCherry fusion proteins were concentrated and desalted to an appropriate protein concentration and 125 mM NaCl using Amicon Ultra centrifugal filters (30K MWCO, Millipore). Recombinant protein was added too. […] The protein solution was immediately loaded onto glass bottom 384 well plate (Cellvis P384-1.5H-N) and imaged with an Andor confocal microscope with a 150× objective. Unless indicated, images presented are of droplets settled on the glass coverslip.
(§2) Drug and small molecule concentrations used in the droplet experiments are as follows:
To analyze in vitro droplet experiments, custom Python scripts using the scikit-image package were written to identify droplets and characterize their size, shape and intensity. Droplets were segmented from average images of captured channels on various criteria: (1) an intensity threshold that was three s.d. above the mean of the image; (2) size thresholds (20 pixel minimum droplet size); and (3) a minimum circularity (circularity=4π·areaperimeter2) (circularity=4π·areaperimeter2) of 0.8 (1 being a perfect circle). After segmentation, mean intensity for each droplet was calculated while excluding pixels near the phase interface, and background-corrected by subtracting intensity of dark images of droplet formation buffer only. Droplets identified in the channel of the fluorescent protein from ten independent fields of view were quantified for each experiment. The maximum intensity of signal within the droplets was calculated for each channel, the maximum intensity in the drug channel was termed “maximum drug intensity”. To obtain the intensity of drug or dye alone in the diffuse state (termed “diffuse drug intensity”), the compound was added to droplet formation buffer at same concentration used in the droplet assay. This was then imaged on a confocal fluorescent microscope. The resulting image was processed in FIJI to obtain the fluorescent intensity of the field. To obtain the fluorescent intensity of protein droplets that bleed through in the drug channel (termed “background intensity”) protein droplets were imaged in the fluorescent channel in which the drug fluoresces and processed as above to obtain the average maximum intensity within the droplet across 10 images. The enrichment ratio was obtained by the following formula [(maximum drug intensity)−(background intensity)]/(diffuse drug intensity). The box plots show the distributions of all droplets. Each dot represents an individual droplet.

[2] = molecular target: T2, HP1α (Homo sapiens, UniProt P45973); assay: In vitro droplet assay, small molecule partitioning into HP1α condensates; assay type: binding
T2 construct: HP1α—full length, amino acids 1-191; 6xHis (N); made in house; host or cells: LOBSTR cells (E. coli)
Description: as §1, §2
(§3) To analyze in vitro droplet experiments, custom Python scripts using the scikit-image package were written to identify droplets and characterize their size, shape and intensity. […] After segmentation, mean intensity for each droplet was calculated while excluding pixels near the phase interface, and background-corrected by subtracting intensity of dark images of droplet formation buffer only. Droplets identified in the channel of the fluorescent protein from ten independent fields of view were quantified for each experiment. The maximum intensity of signal within the droplets was calculated for each channel, the maximum intensity in the drug channel was termed “maximum drug intensity”. […]

[3] = Droplet formation assay of small molecule alone without any protein; assay type: physicochemical; conditions: without any protein added
Description: as §1, with “Recombinant protein was added too.” left out

[4] = test system: MED1 condensate at the LAC array in U2OS cells; assay: LAC binding assay, FLTX1 enrichment at tethered MED1 or HP1α; assay type: cell-based, human; conditions: ESR1 not expressed, 1 uM FLTX1
Description: Constructs were assembled by NEB HIFI cloning in pSV2 mammalian expression vector containing an SV40 promoter driving expression of a mCherry-LacI fusion protein. The intrinsically disordered region of MED1, HP1α, or the activation domain of ESR1 was fused by the c-terminus to this recombinant protein, joined by the linker sequence […] (SEQ ID NO: 16). For experiments comparing FLTX1 enrichment at the array, U20S-Lac cells were plated onto chambered coverglass (1.5 Borosilicate Glass, Nunc Lab-Tek, 155409) and transfected with either MED1 IDR or HP1α constructs with lipofectamine 3000 (Thermofisher L3000015). After 24 hours, cells were treated with either 1 uM FLTX1 or vehicle (DMF). […]
For analysis of Lac array data comparing MED1 or HP1α tethered, a region of interest was called using the signal in the Lac array (561 channel). The average fluorescent signal for FLTX1 (488 channel) was then measured in the region of interest and divided by the average fluorescence in the region of interest at the Lac array. […] For analysis of Lac array data for MED1 overexpression, enrichment was calculated by dividing the average fluorescent signal for MED1 immunofluorescence at the region of interest, defined by the ER tethered at the lac array, by MED1 immunofluorescence signal at a random nuclear region.

[5] = test system: MED1, BRD4, and POL2 condensates in HCT116 colon cancer cell lines; assay: Small molecule effects on transcriptional condensates in GFP-tagged HCT116 cells; assay type: cell-based, human; conditions: for effect on transcriptional condensates: MED1-GFP, BRD4-GFP, POL2-GFP HCT116
From the text: HCT116 colon cancer cell lines endogenously tagged with MED1-GFP, BRD4-GFP, POL2-GFP, or HP1a-GFP (Mock), all forming condensates in the nucleus.

[6] = test system: BRD4 at super-enhancers; assay: Super-enhancers versus typical enhancers, gene expression and BRD4 genomic occupancy; assay type: cell-based
[7] = test system: MED1 genomic occupancy in HCT116 cells; assay: MED1 ChIP-seq in HCT116 cells; assay type: cell-based, human; conditions: JQ1 for 24 hours
[8] = test system: platinated DNA at MYC locus in HCT116 cells; assay: Immunofluorescence with MYC DNA FISH after JQ1 then cisplatin; assay type: cell-based, human; conditions: 1 μM JQ1 24 hours, then 50 μM cisplatin 6 hours
[9] = molecular target: T3, FIB1 (Homo sapiens, UniProt P22087); assay: In vitro droplet assay, small molecule partitioning into FIB1 condensates; assay type: binding; conditions: 125 mM NaCl, 10% PEG, 10 μM protein
T3 construct: FIB1—full length, amino acids 1-321; 6xHis (N); made in house; host or cells: LOBSTR cells (E. coli)
Description: as §1, §2, §3

[10] = molecular target: T4, NPM1 (Homo sapiens, UniProt P06748); assay: In vitro droplet assay, small molecule partitioning into NPM1 condensates; assay type: binding; conditions: 125 mM NaCl, 10% PEG, 10 μM protein
T4 construct: NPM1—full length, amino acids 1-294; 6xHis (N); made in house; host or cells: LOBSTR cells (E. coli)
Description: as §1, §2, §3

[11] = molecular target: T5, MED1 condensates (Homo sapiens, UniProt Q15648); assay: Determination of partitioning by spectrophotometry and quantitative phase microscopy; assay type: binding; conditions: uv spectroscopy of drug remaining in solution plus condensate volume estimate
T5 construct: MED1—amino acids 600-1581; 6xHis (N); made in house; host or cells: LOBSTR cells (E. coli)
From the text: Here, an expression is derived briefly for the partition coefficient of a client molecule into a condensed phase in terms of quantities that are readily measurable experimentally. A sample composed of two coexisting phases is considered, named dilute and condensed, with volume fractions ϕdilute and […]. If a client molecule (e.g. a drug) is also present in the sample at an average concentration of ctotal, then mass conservation requires that
the ratio is estimated ctotal/cdilute from fluorescence spectroscopy measurements, as described in a subsequent section, while ϕcond, it is inferred from the lever rule (M. Rubinstein, R. H. Colby, Polymer Phyics (Oxford University Press, 2003) as follows: denoting the concentration of scaffold protein (e.g. MED1) by s, mass conservation gives stotal=sdiluteϕdilute+scondϕcond, in analogy with Eq. 1. Again using the requirement that the volume fractions of coexisting phases sum to 1, this can be rearranged to yield
where stotal and sdilute are measured spectrophotometrically from optical absorbance at 280 nm, and scond is measured from quantitative phase microscopy, using a coherence-controlled holographic microscope (Q-Phase, Telight (formerly TESCAN), Bmo, CZ) equipped with 40× dry objectives (NA=0.90). […]
where A is the measured absorbance (in Absorbance Units (AU)), I0 is the intensity of the incident light at a given wavelength, I is the transmitted intensity, L the path length through the sample, and c the concentration of the absorbing species. […] The partitioned drug was measured by using spin down assay. […] The supernatant was collected and measured the concentrations of the drug. The partitioned drug was calculated by subtracting from the total known concentration of drug added.
Quantitative phase measurements were performed using a coherence-controlled holographic microscope (Q-Phase, Telight (formerly TESCAN), Brno, CZ) equipped with 40× dry objectives (NA=0.90) as follows. […]
Q-PHASE software was used to construct compensated phase images from acquired holograms, which were subsequently analyzed in MATLAB using custom code. […]

[12] = test system: nucleolus; conditions: references (35, 36); cited from earlier work

T1 sequence (Q15648 600-1581): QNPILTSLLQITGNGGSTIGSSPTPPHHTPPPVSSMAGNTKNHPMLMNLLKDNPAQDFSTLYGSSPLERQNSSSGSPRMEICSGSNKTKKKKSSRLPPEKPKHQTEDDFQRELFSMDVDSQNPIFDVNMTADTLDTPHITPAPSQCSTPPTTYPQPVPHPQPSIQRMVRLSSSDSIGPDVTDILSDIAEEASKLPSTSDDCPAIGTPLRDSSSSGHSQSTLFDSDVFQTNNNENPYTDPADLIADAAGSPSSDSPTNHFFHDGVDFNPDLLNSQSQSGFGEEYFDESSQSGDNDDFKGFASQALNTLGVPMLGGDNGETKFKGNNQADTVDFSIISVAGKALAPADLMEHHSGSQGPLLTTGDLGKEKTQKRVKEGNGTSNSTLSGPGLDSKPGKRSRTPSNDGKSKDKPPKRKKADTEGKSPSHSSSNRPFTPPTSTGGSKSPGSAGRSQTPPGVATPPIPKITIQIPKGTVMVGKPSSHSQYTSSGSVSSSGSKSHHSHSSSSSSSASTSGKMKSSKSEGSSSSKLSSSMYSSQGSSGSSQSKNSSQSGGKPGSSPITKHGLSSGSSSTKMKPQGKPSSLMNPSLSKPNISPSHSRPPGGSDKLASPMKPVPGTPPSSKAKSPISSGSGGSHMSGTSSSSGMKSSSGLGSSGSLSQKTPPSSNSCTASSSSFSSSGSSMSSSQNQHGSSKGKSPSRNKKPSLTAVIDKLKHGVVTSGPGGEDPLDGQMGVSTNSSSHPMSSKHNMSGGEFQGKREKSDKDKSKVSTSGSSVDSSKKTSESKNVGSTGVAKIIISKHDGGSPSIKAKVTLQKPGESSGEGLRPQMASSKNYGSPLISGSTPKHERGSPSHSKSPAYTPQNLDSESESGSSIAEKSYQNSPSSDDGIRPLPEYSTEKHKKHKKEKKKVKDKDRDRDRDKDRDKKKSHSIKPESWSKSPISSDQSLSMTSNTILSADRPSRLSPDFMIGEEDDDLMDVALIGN
T2 sequence (P45973 whole entry, the tested form may be a part): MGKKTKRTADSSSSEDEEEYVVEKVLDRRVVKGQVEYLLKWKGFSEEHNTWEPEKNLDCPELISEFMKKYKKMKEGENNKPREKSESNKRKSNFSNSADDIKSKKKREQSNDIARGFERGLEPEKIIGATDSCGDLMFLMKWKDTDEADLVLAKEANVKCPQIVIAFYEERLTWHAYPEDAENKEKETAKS
T3 sequence (P22087 whole entry, the tested form may be a part): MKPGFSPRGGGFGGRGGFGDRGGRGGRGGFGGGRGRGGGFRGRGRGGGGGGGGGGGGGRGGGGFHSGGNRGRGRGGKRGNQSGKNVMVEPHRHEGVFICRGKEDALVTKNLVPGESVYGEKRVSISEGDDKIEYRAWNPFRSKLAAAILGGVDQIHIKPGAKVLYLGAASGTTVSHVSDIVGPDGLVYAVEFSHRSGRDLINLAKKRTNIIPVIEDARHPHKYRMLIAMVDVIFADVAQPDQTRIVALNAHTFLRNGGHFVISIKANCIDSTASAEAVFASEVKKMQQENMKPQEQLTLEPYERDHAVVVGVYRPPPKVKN
T4 sequence (P06748 whole entry, the tested form may be a part): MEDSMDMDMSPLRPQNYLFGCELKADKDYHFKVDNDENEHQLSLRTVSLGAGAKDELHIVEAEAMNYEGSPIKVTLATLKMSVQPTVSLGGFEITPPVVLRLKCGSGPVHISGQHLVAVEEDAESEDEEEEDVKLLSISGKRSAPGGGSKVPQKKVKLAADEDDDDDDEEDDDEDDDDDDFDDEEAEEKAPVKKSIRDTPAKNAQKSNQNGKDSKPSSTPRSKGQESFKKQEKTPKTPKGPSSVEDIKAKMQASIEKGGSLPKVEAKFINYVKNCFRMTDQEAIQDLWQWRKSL
T5 sequence (Q15648 600-1581): as the sequence (Q15648 600-1581) above

SMILES	drug concentration in larger MED1 condensates ([1]; 20 μM (High) vs 5 μM (Low) MED1, 100 μM FLTX1)	partitioning / incorporation into MED1 droplets [1]	partitioning / incorporation into HP1α droplets [2]	droplet formation of small molecule alone [3]	FLTX1 enrichment at MED1 condensate tethered to the LAC array [4]	effect on transcriptional condensates [5]	effect on transcriptional condensates, long exposure ([5]; long exposure (e.g., 24 hours))	MED1 condensates after JQ1 ([5]; mEGFP-MED1 tagged HCT116 cells, JQ1 for 24 hours)	effect on transcriptional condensates, short exposure ([5]; short exposure (e.g., 5 minutes))	BRD4 genomic occupancy, super-enhancers versus typical enhancers [6]	sensitivity of gene expression by super-enhancers versus typical enhancers [6]	MED1 ChIP-Seq at MYC after JQ1 [7]	platinated DNA at the MYC locus after JQ1 treatment [8]	partitioning into FIB1 condensates [9]	partitioning into NPM1 condensates [10]	partition ratio in MED1 condensates [11]	subcellular concentration [12]
CC/C(=C(\c1ccccc1)c1ccc(OCCN(C)c2ccc([N+](=O)[O-])c3nonc23)cc1)c1ccccc1 [FLTX1]	lower concentrations of the drug	concentrated preferentially in MED1 droplets; also recorded: incorporated into MED1 containing condensates; also recorded: incorporates into MED1 droplets	does not incorporate	diffuse fluorescent signal	concentrated FLTX1 at the site of the condensate; also recorded: concentrates in MED1 condensates in cells												
Cc1sc2c(c1C)C(c1ccc(Cl)cc1)=N[C@@H](CC(=O)OC(C)(C)C)c1nnc(C)n1-2 [JQ1, (S)-tert-butyl 2-(4-(4-chlorophenyl)-2,3,9-trimethyl-6H-thieno[3,2-ƒ][1,2,4]triazolo[4,3-a][1,4]diazepin-6-yl)acetate]				diffuse fluorescent signal		reduces the number of, or eliminates	genomic release and consolidation of condensates	loss of MED1 condensates; also recorded: diminution of MED1 condensates	eviction of some condensate components	reduces BRD4 genomic occupancy in super-enhancers to a greater extent than typical enhancers	more sensitive	loss of MED1 loading	concomitant reduction in platinated DNA at the MYC oncogene; also recorded: loss of signal for platinated DNA				
O=C1c2c(O)ccc(O)c2C(=O)c2c(NCCNCCO)ccc(NCCNCCO)c21 [Mitoxantrone]		concentrated; also recorded: immediately incorporate into MED1 droplets		diffuse fluorescent signal		global dissolution of condensates; also recorded: cause condensate dissolution								concentrated	concentrated	approximately 100 fold	concentrate in the nucleolus
